For one data set, the system named is CYP3A4. Kind of data set: Cytochrome P450 induction screening assay, mRNA induction in human cryopreserved hepatocytes. The format is in vitro ADME. The settings on record: 24 hours exposure. The source says:
Induction of cytochrome P450 enzymes is associated with an increased prevalence of clinical drug-drug interactions. The clinical consequences of induction may be therapeutic failure caused by a decreased systemic exposure of the drug itself or a co-administered therapy, or toxicity as a result of increased bioactivation. Cytochrome P450 (CYP450) induction assay has been used to understand the potential drug-drug interaction liabilities in drug discovery stage. Human cryopreserved hepatocytes (Life Technologies, Carlsbad, USA) were thawed and cultured in collagen I coated 96-well plates with a density of 52,000 cells/well. After attachment, hepatocyte maintenance medium (HMM; Lonza, Switzerland) was changed after cells were pre-cultured overnight. […] Medium change was then performed and cells were exposed for 24 hours to test compounds, positive inducer compounds, or vehicle (0.1% DMSO), respectively. At the end of the compound exposure period, medium was removed and cells lysed using 100 μL/well MagNA Pure LC RNA isolation tissue lysis buffer (Roche Diagnostics AG, Rotkreuz, Switzerland). […] mRNA isolation was performed using the MagNA Pure 96 system (Roche Diagnostics AG, Rotkreuz, Switzerland) and the respective cellular RNA large volume kit (Roche Diagnostics AG, Rotkreuz, Switzerland) from thawed samples diluted 1:1 with PBS. […] The resulting cDNA was diluted with 40 μL of H2O before using for qRT-PCR. qRT-PCR was performed by using the forward and the reverse primer, the corresponding Universal Probe Library (all from Microsynth, Balgach, Switzerland) and the Taqman Fast advanced master mix (Applied Biosystems), on an ABI 7900 machine (Applied Biosystems). qRT-PCR Ct-values for the respective P450s were put into relation to the Ct-value of RN18S1 (microsynth, Balgach, Switzerland) of the same sample. Doing so, a respective Δct-value was calculated. Using the average of all Δct-values for the vehicle control samples, a ΔΔct-value was calculated for each sample (ΔΔct-value(sample)=Δct-value(sample)−average of Δct-value of all vehicle controls). […] The individual fold induction values were then averaged per treatment condition (usually n=3 biological replicates).

A further data set has as its target human TLR8 (Homo sapiens (Human), UniProt Q9NR97). Kind of data set: HEK-Blue-hTLR8 cells assay and selectivity index. It is filed as cell-based. The settings on record: EC50(TLR8) value/EC50(TLR7) value. How it is done: A stable HEK-Blue-hTLR8 cell line was purchased from InvivoGen (Cat.#: HEK-Blue-htlr8, San Diego, Calif., USA). These cells were designed for studying the stimulation of human TLR8 by monitoring the activation of NF-κB. […] Therefore the reporter expression was regulated by the NF-κB promoter upon stimulation of human TLR8 for 20 hrs. The cell culture supernatant SEAP reporter activity was determined using QUANTI-Blue™ kit (Cat.#: rep-qb1, Invivogen, San Diego, Ca, USA) at a wavelength of 640 nm, a detection medium that turns purple or blue in the presence of alkaline phosphatase.
HEK-Blue-hTLR8 cells were incubated at a density of 250,000˜450,000 cells/mL in a volume of 180 μL in a 96-well plate in Dulbecco's Modified Eagle's medium (DMEM) containing 4.5 g/L glucose, 50 U/mL penicillin, […], […], 2 mM L-glutamine, 10% (V/V) heat-inactivated fetal bovine serum for 24 hrs. Then the HEK-Blue-hTLR8 cells were incubated with addition of 20 μL test compound in a serial dilution in the presence of final DMSO at 1% and perform incubation under 37° C. in a CO2 incubator for 20 hrs. Then 20 μL of the supernatant from each well was incubated with 180 μL Quanti-blue substrate solution at 37° C. for 2 hours and the absorbance was read at 620˜655 nm using a spectrophotometer. The signalling pathway that TLR8 activation leads to downstream NF-κB activation has been widely accepted, and therefore similar reporter assay was also widely used for evaluating TLR8 agonist (Tsuneyasu Kaisho and Takashi Tanaka, Trends in Immunology, Volume 29, Issue 7, July 2008, […]; Hiroaki Hemmi et al, Nature Immunology 3, 196-200 (2002)).
The ratio of TLR8 agonism activity compared to TLR7 agonism activity was defined as the selectivity index (EC50 (TLR8) value/EC50(TLR7) value) and calculated accordingly.

The nature of data set [1]: Single dose PK after 1 mg/kg intravenous dosing to rat. The settings on record: IV 1 mpk. It is filed as in vivo, Male Wister-Han Rats. On the procedure:
The single dose PK in Male Wister-Han Rats was performed to assess pharmacokinetic properties of tested compounds. Two groups of animals were dosed via bolus intravenous (IV) of the respective compound. Blood samples (approximately 20 μL) were collected via Jugular vein or an alternate site at 5 min, 15 min, 30 min, 1 hr, 2 hr, 4 hr, 7 hr and 24 hr post-dose for IV group. Blood samples were placed into tubes containing EDTA-K2 anticoagulant and centrifuged at 5000 rpm for 6 min at 4° C. to separate plasma from the samples. Following centrifugation, the resulting plasma was transferred to clean tubes for bioanalysis on LC/MS/MS. The pharmacokinetic parameters were calculated using non-compartmental module of WinNonlin® Professional 6.2. […] Therefore, compounds of present invention potentially could lead to less dose frequency and lower dose in clinical application.

The mark [2] stands for this setting: 7 hrs (row printed 8**), read-out: Mean plasma concentration.
[3] abbreviates: male, Wistar-Han, plasma, iv, 1 mg/kg, 0.083 h.
The mark [4] stands for this setting: male, Wistar-Han, plasma, iv, 1 mg/kg, 0.25 h.
[5] abbreviates: male, Wistar-Han, plasma, iv, 1 mg/kg, 0.5 h.
Where [6] appears, read: male, Wistar-Han, plasma, iv, 1 mg/kg, 1 h.
The mark [7] stands for this setting: male, Wistar-Han, plasma, iv, 1 mg/kg, 2 h.
Setting [8] is: male, Wistar-Han, plasma, iv, 1 mg/kg, 4 h.

The record followed here is US9708325B2, “Sulfonimidoylpurinone compounds and derivatives for the treatment and prophylaxis of virus infection” (Hoffmann-La Roche Inc., priority 2015, dated 2017).

Like-named read-outs stand apart in the source and are kept apart here. Where only a bound is given, the exact number is not on record here.

Sequence of human TLR8 (Q9NR97 27-1041): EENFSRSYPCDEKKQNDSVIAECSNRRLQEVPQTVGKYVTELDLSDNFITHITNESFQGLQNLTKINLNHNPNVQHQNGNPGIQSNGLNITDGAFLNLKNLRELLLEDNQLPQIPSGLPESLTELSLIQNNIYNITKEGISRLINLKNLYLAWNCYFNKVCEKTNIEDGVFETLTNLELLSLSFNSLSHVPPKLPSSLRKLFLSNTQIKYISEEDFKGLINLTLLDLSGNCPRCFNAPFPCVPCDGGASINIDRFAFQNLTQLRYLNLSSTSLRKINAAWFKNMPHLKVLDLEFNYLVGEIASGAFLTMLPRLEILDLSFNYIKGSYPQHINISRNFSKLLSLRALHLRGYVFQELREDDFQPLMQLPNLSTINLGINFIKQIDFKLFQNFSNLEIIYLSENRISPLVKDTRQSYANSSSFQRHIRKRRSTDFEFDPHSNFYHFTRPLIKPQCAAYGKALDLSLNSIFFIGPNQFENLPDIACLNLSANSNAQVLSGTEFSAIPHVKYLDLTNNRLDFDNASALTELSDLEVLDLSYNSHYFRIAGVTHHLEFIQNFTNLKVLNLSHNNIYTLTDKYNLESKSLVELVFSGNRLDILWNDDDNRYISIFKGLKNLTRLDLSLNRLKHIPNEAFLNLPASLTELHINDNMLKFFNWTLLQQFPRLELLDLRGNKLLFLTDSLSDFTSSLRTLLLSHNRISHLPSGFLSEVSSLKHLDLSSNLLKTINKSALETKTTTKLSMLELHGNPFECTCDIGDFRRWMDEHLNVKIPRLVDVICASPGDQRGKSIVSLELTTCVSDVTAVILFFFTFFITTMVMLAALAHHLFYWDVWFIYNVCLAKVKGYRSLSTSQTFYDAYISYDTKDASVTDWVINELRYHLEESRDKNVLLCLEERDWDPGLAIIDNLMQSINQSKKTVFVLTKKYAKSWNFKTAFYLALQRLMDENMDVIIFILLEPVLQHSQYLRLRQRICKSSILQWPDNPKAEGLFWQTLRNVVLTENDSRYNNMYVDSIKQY

On to `CCCS(=N)(=O)c1nc(N)c2[nH]c(=O)n(Cc3ccccc3)c2n1` (single isomer, unassigned) [Example 4-A, 6-Amino-9-benzyl-2-(propylsulfonimidoyl)-7H-purin-8-one], for which, in the data set on CYP3A4, the “Relative induction of Positive control (10 μM Rifampicin) (%)” value (“Relative induction … (%)” for short) is −0.63%.
Consider `CCCS(=N)(=O)c1nc(N)c2[nH]c(=O)n(Cc3ccccc3)c2n1` (single isomer, unassigned) [Example 4-B, 6-Amino-9-benzyl-2-(propylsulfonimidoyl)-7H-purin-8-one], for which the “Relative induction … (%)” value with CYP3A4 is −0.90%.
`CCS(=N)(=O)c1nc(N)c2[nH]c(=O)n(Cc3ccc(Cl)cc3)c2n1` (single isomer, unassigned) [Example 70-A, 6-Amino-9-[(4-chlorophenyl)methyl]-2-(ethylsulfonimidoyl)-7H-purin-8-one]: on human TLR8, the Selective index is on record as above 18518. The “Relative induction … (%)” value in the data set with CYP3A4 stood at 0.42%. In data set [1], the “CO” value is 3052 nM. Besides, the concentration at 4 h was 6.28 nM in data set [1] (setting [2]) and 20.5 nM in data set [1] (setting [8]). The same molecule came in with a concentration at 0.083 h in data set [1] (setting [3]) of 3050 nM. In data set [1] (setting [4]), this molecule had a concentration at 0.25 h of 1340 nM. In data set [1] (setting [5]), this molecule registered a concentration at 0.5 h of 718 nM. For the same molecule, in data set [1] (setting [6]), the concentration at 1 h worked out at 354 nM. The molecule also showed a concentration at 2 h in data set [1] (setting [7]) of 110 nM.
As for `CCS(=N)(=O)c1nc(N)c2[nH]c(=O)n(Cc3ccc(Cl)cc3)c2n1` (single isomer, unassigned) [Example 70-B, 6-Amino-9-[(4-chlorophenyl)methyl]-2-(ethylsulfonimidoyl)-7H-purin-8-one], the “Relative induction … (%)” value with CYP3A4 is recorded as −0.42%. Moreover, the “AUC0-inf” value in data set [1] was determined as 1.894 µM·h. The “CL” value in data set [1] is on record as 48.7 mL/min/kg. Moreover, the “CO” value in data set [1] worked out at 2782 nM. Also, the concentration at 4 h came to 2782 nM in data set [1] (0.083 h, read-out: Mean plasma concentration); 1434 nM in data set [1] (0.25 h, read-out: Mean plasma concentration); 862 nM in data set [1] (0.5 h, read-out: Mean plasma concentration); 461 nM in data set [1] (1 h, read-out: Mean plasma concentration); 173 nM in data set [1] (2 h, read-out: Mean plasma concentration); 29.1 nM in data set [1] (4 h, read-out: Mean plasma concentration). In addition, the concentration at 4 h in data set [1] (setting [2]) was 16.7 nM.
With `CCS(=N)(=O)c1nc(N)c2[nH]c(=O)n(Cc3ccc(C)cc3)c2n1` (single isomer, unassigned) [Example 71-A, 6-Amino-2-(ethylsulfonimidoyl)-9-(p-tolylmethyl)-7H-purin-8-one], the “Relative induction … (%)” value with CYP3A4 is on record as −0.10%. Further, in data set [1], the “CO” value is listed as 1848 nM. In data set [1] (setting [3]), this molecule registered a concentration at 0.083 h of 1850 nM. This molecule had a concentration at 0.25 h in data set [1] (setting [4]) of 1000 nM. The molecule also had a concentration at 0.5 h in data set [1] (setting [5]) of 537 nM. The molecule further had a concentration at 1 h in data set [1] (setting [6]) of 292 nM. For the same molecule, the concentration at 2 h in data set [1] (setting [7]) was 115 nM. In data set [1] (setting [8]), this molecule gave a concentration at 4 h of 18.2 nM.
